Results taken from BindingDB's records for doi:10.7270/Q2X63KBQ (The Scripps Research Institute Molecular Screening Center, 2009).

Molecular target: Beta-lactamase (Pseudomonas aeruginosa, UniProt Q932Y6)
Experiment: VIM-2 metallo-beta-lactamase inhibitor potency, dose response, biochemical, epi-absorbance readout, selective inhibitors (AID 1919)

Beta-lactamase, sequence (Q932Y6 whole entry): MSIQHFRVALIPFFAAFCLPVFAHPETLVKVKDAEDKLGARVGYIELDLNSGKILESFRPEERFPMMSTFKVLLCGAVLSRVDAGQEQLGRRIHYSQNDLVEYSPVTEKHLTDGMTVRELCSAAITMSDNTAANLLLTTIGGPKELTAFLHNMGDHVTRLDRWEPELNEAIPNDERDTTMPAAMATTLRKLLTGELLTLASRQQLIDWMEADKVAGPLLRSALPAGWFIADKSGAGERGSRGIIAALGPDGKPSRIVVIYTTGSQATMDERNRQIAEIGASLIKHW

Row | SMILES | IC50
1 | Cn1c(-c2sccc2OCc2ccc(Cl)cc2Cl)n[nH]c1=S | 6.63 µM

Molecular target: VIM-2 metallo β-lactamase (Pseudomonas aeruginosa, UniProt Q9K2N0)
Experiment: as above

Row | SMILES | IC50
2 | O=C1C(=O)N(Cc2cccnc2)C(c2ccccn2)C1C(=O)c1cccs1 (stereo not drawn) [3-hydroxy-5-(2-pyridinyl)-1-(3-pyridinylmethyl)-4-(2-thienylcarbonyl)-1,5-dihydro-2H-pyrrol-2-one] | 13.2 µM
3 | O=C1C(=O)N(Cc2cccnc2)C(c2ccccn2)C1C(=O)c1ccccc1 (stereo not drawn) [(4Z)-4-[hydroxy(phenyl)methylene]-5-(2-pyridyl)-1-(3-pyridylmethyl)pyrrolidine-2,3-quinone] | 5 µM
4 | COc1ccc(C(=O)C2C(=O)C(=O)N(Cc3ccco3)C2c2cc(OC)ccc2OC)cc1 (stereo not drawn) [(4E)-5-(2,5-dimethoxyphenyl)-1-(2-furanylmethyl)-4-[hydroxy-(4-methoxyphenyl)methylidene]pyrrolidine-2,3-dione] | 12.8 µM
5 | COc1ccc(OC)c(C2C(C(=O)c3ccco3)C(=O)C(=O)N2Cc2cccnc2)c1 (stereo not drawn) [2-(2,5-dimethoxyphenyl)-3-(furan-2-carbonyl)-4-hydroxy-1-(pyridin-3-ylmethyl)-2H-pyrrol-5-one] | 1.94 µM
6 | COc1cc(OC)c(OC)cc1C=NNC(=O)Cc1c(C)[nH][nH]c1=O [MLS000555854] | 4.22 µM
7 | COc1ccc(OC)c(C=NNC(=O)Cc2c(C)[nH][nH]c2=O)c1 [SMR000147372] | 6.1 µM
8 | O=C1C(=O)N(Cc2cccnc2)C(c2ccccn2)C1C(=O)c1ccc(F)cc1 (stereo not drawn) [(4Z)-4-[(4-fluorophenyl)-hydroxy-methylene]-5-(2-pyridyl)-1-(3-pyridylmethyl)pyrrolidine-2,3-quinone] | 2.42 µM
